In the supplement of paper PMC11208160:

Test: recombinant barcode read abundance after kanamycin selection (control-corrected) (log10(CPM+1)); higher = more efficient recombination; sequences stand for … in AGTGCAGAGAAAATCGGCCAGTTTTCTCTGCCTGCAGTCCGCATGCCGT…AGATTTATGCAGCGGACTGCCTTTCTCCCAAAGTGATAAACCGGACAGTATCATGGACCGGTTTTCCCGGTAATCCGTATTTGCAAGGTTGGTTTCACT; site = the 11-nt target
How it was run: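 For this pooled screen, each oligo contained a promoter, a target, a barcode and the J23119-driven first 104 bases of the bridge RNA. Gibson cloning placed it into a vector supplying the remaining 73 bp and a T7-inducible recombinase, and the pool was co-electroporated into E. coli with a donor plasmid. Recombination efficiency is derived from barcode counts per million at recombinant junctions after averaging and control correction, and is expressed on a log scale as log10(CPM+1), with selection on chloramphenicol/ampicillin/kanamycin plus 0.1 mM IPTG against a chloramphenicol/ampicillin LB agar control.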
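Further: IS621 recombinase and bridge RNA in Escherichia coli cells.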

Sequence | recombinant barcode read abundance (log10)
CCACCGTCTTGGGTTCTAACCTGTTGCCT (site CCACAGTCTAG) | 0.171
CCACCGTCTTGGGTTCTAACCTGTTGCCT (site CCACCGTCTAG) | 0.156
CCACCGTCTTGGGTTCTAACCTGTTGCCT (site CCACGGTCTAG) | 0.177
CCACCGTCTTGGGTTCTAACCTGTTGCCT (site CCACTGTCTAG) | 0.175
CCACGGTCTTGGGTTCTAACCTGTTGCCT (site CCACAGTCTAG) | 0.161
CCACGGTCTTGGGTTCTAACCTGTTGCCT (site CCACCGTCTAG) | 0.0249
CCACGGTCTTGGGTTCTAACCTGTTGCCT (site CCACGGTCTAG) | 1.1
CCACGGTCTTGGGTTCTAACCTGTTGCCT (site CCACTGTCTAG) | 0.033
CCAGAAGCTTGGGTTCTAACCTGTTGCCT (site CCAGAAGCTAG) | 0.179
CCAGAAGCTTGGGTTCTAACCTGTTGCCT (site CCAGCAGCTAG) | 0.222
CCAGAAGCTTGGGTTCTAACCTGTTGCCT (site CCAGGAGCTAG) | 0.407
CCAGAAGCTTGGGTTCTAACCTGTTGCCT (site CCAGTAGCTAG) | 0.0645
CCAGGACCTTGGGTTCTAACCTGTTGCCT (site CCAGGACCTAG) | 2.2
CCAGGACCTTGGGTTCTAACCTGTTGCCT (site CGAGGACCTAG) | 0.291
CCAGGAGCTTGGGTTCTAACCTGTTGCCT (site CCAGAAGCTAG) | 0.338
CCAGGAGCTTGGGTTCTAACCTGTTGCCT (site CCAGCAGCTAG) | 0.103
CCAGGAGCTTGGGTTCTAACCTGTTGCCT (site CCAGGAGCTAG) | 0.545
CCAGGAGCTTGGGTTCTAACCTGTTGCCT (site CCAGTAGCTAG) | 0.109
CCAGGTACTTGGGTTCTAACCTGTTGCCT (site ACAGGTACTAG) | 0.272
CCAGGTACTTGGGTTCTAACCTGTTGCCT (site CCAGGTACTAG) | 0.701
CCAGGTACTTGGGTTCTAACCTGTTGCCT (site GCAGGTACTAG) | 0.117
CCAGGTACTTGGGTTCTAACCTGTTGCCT (site TCAGGTACTAG) | 0.182

Sequence | recombinant barcode read abundance (log10)
CCAGGTCCTTGGGTTCTAACCTGTTGCAT (site CCAGGTCCTAC) | 0.111
CCAGGTCCTTGGGTTCTAACCTGTTGCAT (site CCAGGTCCTAT) | 2.25
CCAGGTGCTTGGGTTCTAACCTGTTGCGG (site CCAGGTGCTCC) | 1.62
CCAGGTGCTTGGGTTCTAACCTGTTGCGG (site GGCTTGACTAG) | 0.0921
CCAGTAACTTGGGTTCTAACCTGTTGCCT (site CCAGTAACTAG) | 0.659
CCAGTAACTTGGGTTCTAACCTGTTGCCT (site CCAGTCACTAG) | 0.137
CCAGTAACTTGGGTTCTAACCTGTTGCCT (site CCAGTGACTAG) | 0.082
CCAGTAACTTGGGTTCTAACCTGTTGCCT (site CCAGTTACTAG) | 0.0883
CCAGTAGCTTGGGTTCTAACCTGTTGCCT (site CCAGAAGCTAG) | 0.382
CCAGTAGCTTGGGTTCTAACCTGTTGCCT (site CCAGCAGCTAG) | 0.161
CCAGTAGCTTGGGTTCTAACCTGTTGCCT (site CCAGGAGCTAG) | 0.193
CCAGTAGCTTGGGTTCTAACCTGTTGCCT (site CCAGTAGCTAG) | 0.52
CCAGTCACTTGGGTTCTAACCTGTTGCCT (site CCAGTAACTAG) | 0.377
CCAGTCACTTGGGTTCTAACCTGTTGCCT (site CCAGTCACTAG) | 1.88
CCAGTCACTTGGGTTCTAACCTGTTGCCT (site CCAGTGACTAG) | 0.176
CCAGTCACTTGGGTTCTAACCTGTTGCCT (site CCAGTTACTAG) | 0.19
CCAGTGACTTGGGTTCTAACCTGTTGCCT (site CCAGTAACTAG) | 0.931
CCAGTGACTTGGGTTCTAACCTGTTGCCT (site CCAGTCACTAG) | 0.299
CCAGTGACTTGGGTTCTAACCTGTTGCCT (site CCAGTGACTAG) | 1.38
CCAGTGACTTGGGTTCTAACCTGTTGCCT (site CCAGTTACTAG) | 0.254
CCATGGACTTGGGTTCTAACCTGTTGCCT (site CCAAGGACTAG) | 0.202
CCATGGACTTGGGTTCTAACCTGTTGCCT (site CCACGGACTAG) | 0.516

Sequence | recombinant barcode read abundance (log10)
CCATGGACTTGGGTTCTAACCTGTTGCCT (site CCAGGGACTAG) | 0.0382
CCATGGACTTGGGTTCTAACCTGTTGCCT (site CCATGGACTAG) | 0.252
CCGAAGACTTGGGTTCTAACCTGTTGCCT (site CCGAAGACTAG) | 0.112
CCGAAGACTTGGGTTCTAACCTGTTGCCT (site TCGAAGACTTG) | 0.492
CCGACTCCTTGGGTTCTAACCTGTTGCCT (site CCGAATCCTAG) | 0.0273
CCGACTCCTTGGGTTCTAACCTGTTGCCT (site CCGACTCCTAG) | 0.13
CCGACTCCTTGGGTTCTAACCTGTTGCCT (site CCGAGTCCTAG) | 0
CCGACTCCTTGGGTTCTAACCTGTTGCCT (site CCGATTCCTAG) | 0.102
CCGATTCCTTGGGTTCTAACCTGTTGCCT (site CCGAATCCTAG) | 0.153
CCGATTCCTTGGGTTCTAACCTGTTGCCT (site CCGACTCCTAG) | 0.171
CCGATTCCTTGGGTTCTAACCTGTTGCCT (site CCGAGTCCTAG) | 0.0319
CCGATTCCTTGGGTTCTAACCTGTTGCCT (site CCGATTCCTAG) | 0.217
CCGCAGCCTTGGGTTCTAACCTGTTGCCT (site CCGAAGCCTAG) | 0.0264
CCGCAGCCTTGGGTTCTAACCTGTTGCCT (site CCGCAGCCTAG) | 1.59
CCGCAGCCTTGGGTTCTAACCTGTTGCCT (site CCGGAGCCTAG) | 0.177
CCGCAGCCTTGGGTTCTAACCTGTTGCCT (site CCGTAGCCTAG) | 0.0447
CCGCCAGCTTGGGTTCTAACCTGTTGCCT (site CCGCCAGCTAG) | 0.171
CCGCCAGCTTGGGTTCTAACCTGTTGCCT (site CCGCCCGCTAG) | 0.0231
CCGCCAGCTTGGGTTCTAACCTGTTGCCT (site CCGCCGGCTAG) | 0.0999
CCGCCAGCTTGGGTTCTAACCTGTTGCCT (site CCGCCTGCTAG) | 0.186
CCGCCCGCTTGGGTTCTAACCTGTTGCCT (site CCGCCAGCTAG) | 0.00972
CCGCCCGCTTGGGTTCTAACCTGTTGCCT (site CCGCCCGCTAG) | 0.473
